Key:
[1] = log P by HPLC on a reversed-phase column (C18), EEC Directive 79/831 Annex V.A8; assay type: physicochemical; settings: for chromatographic logP: read-out: log P (HCOOH)
Description: The stated log P values were determined in accordance with EEC Directive 79/831 Annex V.A8 by HPLC (High Performance Liquid Chromatography) using a reversed-phase column (C18).

[2] = tested on: larvae of the mustard beetle (Phaedon cochleariae); assay: Phaedon cochleariae test (PHAECO spray treatment); assay type: in vivo; settings: application rate 500 g/ha, Chinese cabbage leaf discs sprayed, after 7 days; for pest or weed control at 500 g/ha: Phaedon cochleariae, foliar, 168 h, read-out: effect in % (beetle larvae killed)
Description: Phaedon cochleariae Test (PHAECO Spray Treatment)
Solvent: 78.0 parts by weight of acetone • • 1.5 parts by weight of dimethylformamide Emulsifier: 0.5 part by weight of alkylaryl polyglycol ether
To produce a suitable preparation of active compound, 1 part by weight of active compound is mixed with the stated amounts of solvent and emulsifier, and the concentrate is diluted with emulsifier-containing water to the desired concentration.
Discs of Chinese cabbage (Brassica pekinensis) are sprayed with an active compound preparation of the desired concentration and, after drying, populated with larvae of the mustard beetle (Phaedon cochleariae).
After 7 days, the effect in % is determined. 100% means that all beetle larvae have been killed; 0% means that none of the beetle larvae have been killed.

[3] = tested on: stage 3 Spodoptera litura larvae; assay: Spodoptera litura larvae test; assay type: in vivo; settings: active compound concentration 500 ppm, sweet potato leaf dip, after 7 days, mean of two dishes
Description: Spodoptera litura Larvae Test
Solvent: 3 parts by weight of dimethylformamide Emulsifier: 1 part by weight of polyoxyethylene alkylphenyl ether
To prepare a suitable active compound, 1 part by weight of active compound is mixed with the stated amount of solvent comprising the stated amount of emulsifier, and the mixture is diluted with water to the specified concentration.
Sweet potato leaves are dipped into the sample solution diluted with water to the specified concentration and the leaves treated in this manner are, after the solution adhering to the leaves has dried in air, transferred into a laboratory dish which has a diameter of 9 cm and in which there are 10 stage 3 Spodoptera litura larvae. The dish is then placed in a temperature-controlled room at 25° C., sweet potato leaves are then added to the dish on day two and day four and the number of dead insects is determined after 7 days and used to calculate the insecticidal ratio.
The results are the means of two laboratory dishes per group in this test.

[4] = HPLC, reversed-phase C18, mobile phase with formic acid
[5] = HCOOH, Table 4, compounds of formula I-A-Q4

Cc1cc(-n2nc(C(F)(F)F)c(-c3ccccc3Cl)c2N)ccc1C(=O)NCc1ncccn1 [I-A-Q2-414]
log P (HCOOH) ([1]; HCOOH): I-A-Q2-414: log P (HCOOH): 2.72
effect in % (beetle larvae killed) [2]: 100%

Cc1cc(-n2nc(C(F)(F)F)c(-c3ccccc3Br)c2N)ccc1C(=O)NC(C)c1ccccn1 (stereo not drawn) [I-A-Q2-420]
log P (HCOOH) ([1]; HCOOH): I-A-Q2-420: log P (HCOOH): 2.81
effect in % (beetle larvae killed) [2]: 100%

COC(=O)c1ccc(-n2nc(C(F)(F)F)c(-c3cc(Cl)cc(Cl)c3)c2N)cc1C [I-A-Q4-011, Methyl 4-[5-amino-4-(3,5-dichlorophenyl)-3-trifluoromethylpyrazol-1-yl]-2-methylbenzoate]
chromatographic logP [1, 4]: 5.08
pest or weed control at 500 g/ha [2]: > 80%

Cc1cc(-n2nc(C(F)(F)F)c(-c3cc(Cl)cc(Cl)c3)c2N)ccc1C(=O)NCc1ccccn1 [I-A-Q2-012, 4-[5-Amino-4-(3,5-dichlorophenyl)-3-trifluoromethylpyrazol-1-yl]-2-methyl-N-pyridin-2-ylmethylbenzamide]
chromatographic logP [1, 4]: 3.35
pest or weed control at 500 g/ha [2]: > 80%

O=[N+]([O-])c1ccc(-n2cc(-c3cc(Cl)cc(Cl)c3)c(C(F)(F)F)n2)cc1C(F)(F)F [I-A-Q4-006]
kill of the insect larvae [3]: 80%

N#Cc1cc(-n2nc(C(F)(F)F)c(-c3cc(Cl)cc(C(F)(F)F)c3)c2N)ccc1F [I-A-Q4-009, 5-[5-Amino-4-(3-chloro-5-trifluoromethylphenyl)-3-trifluoromethylpyrazol-1-yl]-2-fluorobenzonitrile]
chromatographic logP [1, 4]: 4.54
pest or weed control at 500 g/ha [2]: > 80%

O=C(NCc1ccccn1)c1ccc(-n2cc(-c3cc(Cl)cc(Cl)c3)c(C(F)(F)F)n2)cc1[N+](=O)[O-] [I-A-Q2-003]
kill of the insect larvae [3]: 100%

CC[S+]([O-])c1ccn(-c2ccc(-n3nc(C(F)(F)F)c(-c4cc(Cl)cc(Cl)c4)c3N)cc2C#N)n1 (stereo not drawn) [I-A-Q1-090]
log P (HCOOH) [1, 4]: I-A-Q1-090: log P (HCOOH): 3.47
effect in % (beetle larvae killed) [2]: 100%

Cc1cc(-n2nc(C(F)(F)F)c(-c3cc(Cl)cc(Cl)c3)c2Br)ccc1C(=O)NC(C)C(F)(F)F (stereo not drawn) [I-A-Q2-024, 4-[5-Bromo-4-(3,5-dichlorophenyl)-3-trifluoromethylpyrazol-1-yl]-2-methyl-N-(2,2,2-trifluoro-1-mmethylethyl)benzamide]
chromatographic logP [1, 4]: 5.53
pest or weed control at 500 g/ha [2]: > 80%

Cc1cc(-n2nc(C(F)(F)F)c(-c3ccccc3Cl)c2N)ccc1C(=O)NC(C)c1ccccn1 (stereo not drawn) [I-A-Q2-415]
log P (HCOOH) ([1]; HCOOH): I-A-Q2-415: log P (HCOOH): 2.71
effect in % (beetle larvae killed) [2]: 100%

CCS(=O)(=O)c1ncn(-c2ccc(-n3nc(C(F)(F)F)c(-c4cc(Cl)cc(Cl)c4)c3N)cc2C#N)n1 [I-A-Q1-087]
log P (HCOOH) [1, 4]: I-A-Q1-087: log P (HCOOH): 3.78
effect in % (beetle larvae killed) [2]: 100%

CCOC(=O)c1ccc(-n2cc(-c3cc(Cl)cc(Cl)c3)c(C(F)(F)F)n2)cc1C(F)(F)F [I-A-Q4-001, Ethyl 4-[4-(3,5-dichlorophenyl)-3-trifluoromethylpyrazol-1-yl]-2-trifluoromethylbenzoate]
kill of the insect larvae [3]: 80%

N#Cc1cc(-n2nc(C(F)(F)F)c(-c3cc(Cl)cc(C(F)(F)F)c3)c2N)ccc1-n1cncn1 [I-A-Q1-001, 5-[5-Amino-4-(3-chloro-5-trifluoromethylphenyl)-3-trifluoromethylpyrazol-1-yl]-2-[1,2,4]triazol-1-ylbenzonitrile]
chromatographic logP [1, 4]: 3.92
pest or weed control at 500 g/ha [2]: > 80%

Cc1cc(-n2nc(C(F)(F)F)c(-c3ccc(Cl)cc3Cl)c2N)ccc1C(=O)NC(C)c1ccccn1 (stereo not drawn) [I-A-Q2-412]
log P (HCOOH) ([1]; HCOOH): I-A-Q2-412: log P (HCOOH): 3.29
effect in % (beetle larvae killed) [2]: 100%

Cc1cc(-n2nc(C(F)(F)F)c(-c3ccccc3Br)c2N)ccc1C(=O)NCc1ccccn1 [I-A-Q2-421]
log P (HCOOH) ([1]; HCOOH): I-A-Q2-421: log P (HCOOH): 2.53
effect in % (beetle larvae killed) [2]: 100%

N#Cc1cc(-n2nc(C(F)(F)F)c(-c3cc(Cl)cc(C(F)(F)F)c3)c2N)ccc1-n1nc[nH]c1=O [I-A-Q1-002, 5-[5-Amino-4-(3-chloro-5-trifluoromethylphenyl)-3-trifluoromethylpyrazol-1-yl]-2-(5-oxo-4,5-dihydro[1,2,4]triazol-1-yl)benzonitrile]
chromatographic logP [1, 4]: 3.45
pest or weed control at 500 g/ha [2]: > 80%

Cc1cc(-n2nc(C(F)(F)F)c(-c3cc(Cl)cc(Cl)c3)c2Cl)ccc1C(=O)NC(C)C(F)(F)F (stereo not drawn) [I-A-Q2-022, 4-[5-Chloro-4-(3,5-dichlorophenyl)-3-trifluoromethylpyrazol-1-yl]-2-methyl-N-(2,2,2-trifluoro-1-methylethyl)benzamide]
chromatographic logP [1, 4]: 5.59
pest or weed control at 500 g/ha [2]: > 80%

Cc1cc(-n2nc(C(F)(F)F)c(-c3cc(Cl)cc(Cl)c3)c2I)ccc1C(=O)NCc1ccccn1 [I-A-Q2-025, 4-[4-(3,5-Dichlorophenyl)-5-iodo-3-trifluoromethylpyrazol-1-yl]-2-methyl-N-pyridin-2-ylmethylbenzamide]
chromatographic logP [1, 4]: 4.29
pest or weed control at 500 g/ha [2]: > 80%

Cc1cc(-n2nc(C(F)(F)F)c(-c3ccccc3Br)c2N)ccc1C(=O)NCc1ncccn1 [I-A-Q2-419]
log P (HCOOH) ([1]; HCOOH): I-A-Q2-419: log P (HCOOH): 2.68
effect in % (beetle larvae killed) [2]: 100%

Cc1cc(-n2nc(C(F)(F)F)c(-c3cccc(Br)c3)c2N)ccc1C(=O)NCc1ncccn1 [I-A-Q2-417]
log P (HCOOH) ([1]; HCOOH): I-A-Q2-417: log P (HCOOH): 3.13
effect in % (beetle larvae killed) [2]: 100%

CC(NC(=O)c1ccc(-n2cc(-c3cc(Cl)cc(Cl)c3)cn2)cc1C(F)(F)F)C(F)(F)F (stereo not drawn) [I-A-Q2-006]
kill of the insect larvae [3]: 100%

Nc1c(-c2cc(Cl)cc(Cl)c2)c(C(F)(F)F)nn1-c1ncc(C(=O)NCc2ccccn2)c(C(F)(F)F)n1 [I-A-Q2-020, N-(Pyridin-2-ylmethyl)-2-[5-amino-4-(3,5-dichlorophenyl)-3-trifluoromethylpyrazol-1-yl]-4-trifluoromethylpyrimidine-5-carboxamide]
chromatographic logP [1, 4]: 3.54
pest or weed control at 500 g/ha [2]: > 80%

CSc1c(-c2cc(Cl)cc(Cl)c2)c(C(F)(F)F)nn1-c1ccc(C(=O)NC(C)C(F)(F)F)c(C)c1 (stereo not drawn) [I-A-Q2-027, 4-[4-(3,5-Dichlorophenyl)-5-methylsulphanyl-3-trifluoromethylpyrazol-1-yl]-2-methyl-N-(2,2,2-trifluoro-1-methylethyl)benzamide]
chromatographic logP [1, 4]: 5.48
pest or weed control at 500 g/ha [2]: > 80%

Cc1cc(-n2nc(C)c(-c3cc(Cl)ccc3Cl)c2N)ccc1C(=O)NCC(F)(F)C(F)F [I-A-Q2-335]
log P (HCOOH) ([1]; HCOOH): I-A-Q2-335: log P (HCOOH): 3.04

COC(=O)c1ccc(-n2nc(C(F)(F)F)c(-c3cc(Cl)cc(Cl)c3)c2N)cc1N(C)C [I-A-Q4-119]
log P (HCOOH) [1, 5]: I-A-Q4-119: log P (HCOOH): 4.71

COc1cnc(CNC(=O)c2ccc(-n3nc(C(F)(F)F)c(-c4cc(Cl)cc(Cl)c4)c3N)cc2C)cc1OC [I-A-Q2-037]
log P (HCOOH) ([1]; HCOOH): I-A-Q2-037: log P (HCOOH): 2.42

Nc1c(-c2cc(Cl)cc(Cl)c2)c(C(F)(F)F)nn1-c1ccc(C(=O)NCc2cccnc2)cc1 [I-A-Q2-143]
log P (HCOOH) ([1]; HCOOH): I-A-Q2-143: log P (HCOOH): 2.59

Nc1c(-c2ccc(Cl)c(F)c2)c(C(F)(F)F)nn1-c1ccc(C(=O)NCc2ccccn2)cc1 [I-A-Q2-168]
log P (HCOOH) ([1]; HCOOH): I-A-Q2-168: log P (HCOOH): 2.61

Cc1cc(-n2nc(C(F)(F)F)c(-c3cc(Cl)cc(Cl)c3)c2N)ccc1C(=O)N(C)Cc1cccnc1 [I-A-Q2-209]
log P (HCOOH) ([1]; HCOOH): I-A-Q2-209: log P (HCOOH): 3.02

Cc1nn(-c2ccc(Cl)cn2)c(N)c1-c1c(F)cccc1Cl [I-A-Q4-031]
log P (HCOOH) [1, 5]: I-A-Q4-031: log P (HCOOH): 3.78

Cc1cc(-n2nc(C(F)(F)F)c(-c3cc(Cl)cc(Cl)c3)c2N)ccc1C(=O)N(C)C [I-A-Q2-056]
log P (HCOOH) ([1]; HCOOH): I-A-Q2-056: log P (HCOOH): 3.93

COc1ccc(-c2c(C)nn(-c3ccc(Cl)cn3)c2N)cc1 [I-A-Q4-061]
log P (HCOOH) [1, 5]: I-A-Q4-061: log P (HCOOH): 3.58

Nc1c(-c2cc(Cl)cc(Cl)c2)c(C(F)(F)F)nn1-c1ccc(C(=O)NCc2ccc(Cl)nc2)cc1 [I-A-Q2-148]
log P (HCOOH) ([1]; HCOOH): I-A-Q2-148: log P (HCOOH): 4.12

N#Cc1ccc(-c2c(C(F)(F)F)nn(-c3ccc(Cl)cn3)c2N)cc1 [I-A-Q4-045]
log P (HCOOH) [1, 5]: I-A-Q4-045: log P (HCOOH): 4.11

Cc1nn(-c2ccc(Cl)cn2)c(N)c1-c1cccc(Cl)c1 [I-A-Q4-034]
log P (HCOOH) [1, 5]: I-A-Q4-034: log P (HCOOH): 4.40

Cc1cc(-n2nc(C)c(-c3cccc(Cl)c3)c2N)ccc1C(=O)NCc1ccccn1 [I-A-Q2-371]
log P (HCOOH) ([1]; HCOOH): I-A-Q2-371: log P (HCOOH): 1.88

Cc1cc(-n2nc(C(F)(F)F)c(-c3cc(Cl)cc(Cl)c3)c2N)ccc1C(=O)NC(C)C(F)(F)F (stereo not drawn) [I-A-Q2-011]
log P (HCOOH) ([1]; HCOOH): I-A-Q2-011: log P (HCOOH): 4.54

Nc1c(-c2cc(F)c(F)c(F)c2)c(C(F)(F)F)nn1-c1ccc(C(=O)O)cc1 [I-A-Q4-099]
log P (HCOOH) [1, 5]: I-A-Q4-099: log P (HCOOH): 3.32
